# Source: PMC11356571, “The Comparative Metabolism of a Novel Hepatocellular Carcinoma Therapeutic Agent, 2,3-Diamino-N-(4-(benzo[d]thiazol-2-yl)phenyl)propanamide, in Human and Animal Hepatocytes” (Metabolites, 2024)
# How the values were obtained:
# [1] = Metabolic stability in rat hepatocytes; format: in vitro ADME; settings: cryopreserved hepatocytes
# Protocol: Cryopreserved hepatocytes were carefully thawed in a 37 °C water bath for approximately 1 min, and transferred to a tube containing pre-warmed thawing medium. The supernatants were removed and the pellets were resuspended in KHB at a final cell density of 1 × 10^6 cells/mL, based on hemocytometer counting using trypan blue exclusion. A ETN101 solution was prepared by dissolving ETN101 in water at 4 mM and diluted by KHB at the concentration of 4 μM of ETN101. Sixty microliters each of hepatocyte suspensions and 4 μM of ETN101 were added in a 96-well plate and incubated for 0, 5, 15, 30, and 45 min at 37 °C in a CO2 incubator. All incubations were conducted in triplicates. Reactions were terminated by the addition of 120 μL of ice-cold acetonitrile and followed by vortex mixing. After centrifugation at 13,000 rpm for 8 min at 4 °C, 5 μL of internal standard (IS, camptothecin in acetonitrile at 780 ng/mL) was added to 60 μL of supernatant. A 2 μL aliquot was injected into the LC-MS/MS system. The reliability of the analysis was confirmed by incorporating three different levels of quality control samples at the beginning and end of each analytical batch. The disappearance rate (k) of ETN101 was calculated by determined peak area ratio of ETN101 to IS over incubation period. Subsequently, half-life (t1/2), intrinsic clearance (Clint), and intrinsic hepatic clearance (Clint,hep) of ETN101 in human and animal hepatocytes were calculated using the following equation [34]: t1/2(min)=ln2/−k(elimination slope) ClintμL/min/10^6 cells=ln2/t1/2×μL incubation/hepatocytes (10^6 cells) Clint,hepmL/min/kg=Clint/1000×A×10^6 cells/g liver×B g liver/kg body weight […]
# For the metabolic stability assay, an LC-MS/MS system was employed, consisting of an Agilent 1260 series HPLC system (Agilent Technologies Inc., Santa Clara, CA, USA) coupled to an API 4000 mass spectrometer (AB SCIEX, Concord, Vaughan, ON, Canada) equipped with a turbo electrospray interface. […] ETN101 and IS were detected using multiple reaction monitoring (MRM) mode under positive electrospray ionization (ESI). […]
# [2] = test system: NAT2 in human liver cytosol; experiment: Human liver cytosol incubation with NAT2 inhibitor 1-aminobenzotriazole; format: in vitro ADME; settings: 30 min at 37 °C, M1 1 μM
# Protocol: For the chemical inhibition assay, human liver cytosol was prepared in 0.05 M potassium phosphate buffer at a concentration of 1 mg/mL prior to use. A 1 μL of M1 (final concentration: 1 μM) solution was spiked in 223 μL of human liver cytosol preparations. One microliter each of caffeic acid and 1-aminobenzotriazole were added and incubated as NAT1 and NAT2 inhibitors, respectively. The final concentrations of the NAT inhibitors were 0, 100, and 1000 μM in each incubate. After 5 min of pre-warming of the incubates at 37 °C, the metabolic reaction was initiated by adding 25 μL of acetyl-CoA regenerating system to the incubates. The samples were incubated in triplicate for 0 min or 30 min at 37 °C. The reaction was stopped by adding 250 μL of ice-cold acetonitrile containing the IS (camptothecin, 500 ng/mL) and vortex-mixing. Following centrifugation at 13,000 rpm for 5 min at 4 °C, a 2 μL aliquot of the supernatant was injected into the LC-MS/MS system. The percentage of remaining M1 and the formation of M2 were evaluated to determine the involvement of the NAT isozyme in N-acetylation of M1.
# For enzyme characterization, an Agilent 6460 triple quadrupole mass spectrometer coupled with a 1260 HPLC system (Agilent Technologies, Santa Clara, CA, USA) and a Kinetex Halo® C18 column (2.7 μm, 2.1 × 50 mm, Advanced Material Technology, Wilmington, DE, USA) were used for chromatographic separation. The mobile phases comprised 0.1% (v/v) formic acid in water (mobile phase A) and 0.1% formic acid (v/v) in acetonitrile (mobile phase B). The mobile phase flowed at a rate of 0.3 mL/min, and the gradient elution program proceeded as follows: starting with 10% B for 0.5 min, a linear increase to 90% B for 0.2 min, maintaining 90% B for 1.5 min, and then returning to initial conditions for 0.2 min. Subsequently, the column was reconditioned using 10% B for 2.6 min. The column and auto-sampler were maintained at 40 °C and 4 °C, respectively. ETN101, M1, and M2 were detected via MRM using ESI in the positive mode. […]
half-life at 2 µM ([1]; 45 min incubation at 37 °C) [h],hepatocyte CLint at 2 µM ([1]; 45 min incubation at 37 °C) [µL/min/1e6 cells],CLint scaled at 2 µM ([1]; scaled from Clint) [mL/min/kg],SMILES,Percentage remaining of M1 ([2]; 1-aminobenzotriazole 0 μM) [%],Percentage remaining of M1 ([2]; 1-aminobenzotriazole 100 μM) [%],Percentage remaining of M1 ([2]; 1-aminobenzotriazole 1000 μM) [%]
1.15,20.1,94.1,"NCC(N)C(=O)Nc1ccc(-c2nc3ccccc3s2)cc1 (stereo not drawn) [ETN101, 2,3-diamino-N-(4-(benzo[d]thiazol-2-yl)phenyl)propanamide]",,,
,,,"Nc1ccc(-c2nc3ccccc3s2)cc1 [M1, 2-(4-aminophenyl)benzothiazole]",86.7,89.4,90.9
